Positions of bridges follow the written chain, without caps; N, C: chain ends. Non-standard residues stand in square brackets, D forms with d. Residues, ends and D or L forms follow the SMILES beside them. Hyp = O=C(O)[C@@H]1C[C@@H](O)CN1
Key:
[1] = biological target: Cav2.2 in human SH-SY5Y cell membranes (Homo sapiens, UniProt Q00975); assay: biochemical; format: binding; settings: SEM
hCav2.2 = hCav2.2 (Homo sapiens, UniProt Q00975); assay: cell-based; settings: SEM
Sequence of hCav2.2 (Q00975 whole entry, looked up): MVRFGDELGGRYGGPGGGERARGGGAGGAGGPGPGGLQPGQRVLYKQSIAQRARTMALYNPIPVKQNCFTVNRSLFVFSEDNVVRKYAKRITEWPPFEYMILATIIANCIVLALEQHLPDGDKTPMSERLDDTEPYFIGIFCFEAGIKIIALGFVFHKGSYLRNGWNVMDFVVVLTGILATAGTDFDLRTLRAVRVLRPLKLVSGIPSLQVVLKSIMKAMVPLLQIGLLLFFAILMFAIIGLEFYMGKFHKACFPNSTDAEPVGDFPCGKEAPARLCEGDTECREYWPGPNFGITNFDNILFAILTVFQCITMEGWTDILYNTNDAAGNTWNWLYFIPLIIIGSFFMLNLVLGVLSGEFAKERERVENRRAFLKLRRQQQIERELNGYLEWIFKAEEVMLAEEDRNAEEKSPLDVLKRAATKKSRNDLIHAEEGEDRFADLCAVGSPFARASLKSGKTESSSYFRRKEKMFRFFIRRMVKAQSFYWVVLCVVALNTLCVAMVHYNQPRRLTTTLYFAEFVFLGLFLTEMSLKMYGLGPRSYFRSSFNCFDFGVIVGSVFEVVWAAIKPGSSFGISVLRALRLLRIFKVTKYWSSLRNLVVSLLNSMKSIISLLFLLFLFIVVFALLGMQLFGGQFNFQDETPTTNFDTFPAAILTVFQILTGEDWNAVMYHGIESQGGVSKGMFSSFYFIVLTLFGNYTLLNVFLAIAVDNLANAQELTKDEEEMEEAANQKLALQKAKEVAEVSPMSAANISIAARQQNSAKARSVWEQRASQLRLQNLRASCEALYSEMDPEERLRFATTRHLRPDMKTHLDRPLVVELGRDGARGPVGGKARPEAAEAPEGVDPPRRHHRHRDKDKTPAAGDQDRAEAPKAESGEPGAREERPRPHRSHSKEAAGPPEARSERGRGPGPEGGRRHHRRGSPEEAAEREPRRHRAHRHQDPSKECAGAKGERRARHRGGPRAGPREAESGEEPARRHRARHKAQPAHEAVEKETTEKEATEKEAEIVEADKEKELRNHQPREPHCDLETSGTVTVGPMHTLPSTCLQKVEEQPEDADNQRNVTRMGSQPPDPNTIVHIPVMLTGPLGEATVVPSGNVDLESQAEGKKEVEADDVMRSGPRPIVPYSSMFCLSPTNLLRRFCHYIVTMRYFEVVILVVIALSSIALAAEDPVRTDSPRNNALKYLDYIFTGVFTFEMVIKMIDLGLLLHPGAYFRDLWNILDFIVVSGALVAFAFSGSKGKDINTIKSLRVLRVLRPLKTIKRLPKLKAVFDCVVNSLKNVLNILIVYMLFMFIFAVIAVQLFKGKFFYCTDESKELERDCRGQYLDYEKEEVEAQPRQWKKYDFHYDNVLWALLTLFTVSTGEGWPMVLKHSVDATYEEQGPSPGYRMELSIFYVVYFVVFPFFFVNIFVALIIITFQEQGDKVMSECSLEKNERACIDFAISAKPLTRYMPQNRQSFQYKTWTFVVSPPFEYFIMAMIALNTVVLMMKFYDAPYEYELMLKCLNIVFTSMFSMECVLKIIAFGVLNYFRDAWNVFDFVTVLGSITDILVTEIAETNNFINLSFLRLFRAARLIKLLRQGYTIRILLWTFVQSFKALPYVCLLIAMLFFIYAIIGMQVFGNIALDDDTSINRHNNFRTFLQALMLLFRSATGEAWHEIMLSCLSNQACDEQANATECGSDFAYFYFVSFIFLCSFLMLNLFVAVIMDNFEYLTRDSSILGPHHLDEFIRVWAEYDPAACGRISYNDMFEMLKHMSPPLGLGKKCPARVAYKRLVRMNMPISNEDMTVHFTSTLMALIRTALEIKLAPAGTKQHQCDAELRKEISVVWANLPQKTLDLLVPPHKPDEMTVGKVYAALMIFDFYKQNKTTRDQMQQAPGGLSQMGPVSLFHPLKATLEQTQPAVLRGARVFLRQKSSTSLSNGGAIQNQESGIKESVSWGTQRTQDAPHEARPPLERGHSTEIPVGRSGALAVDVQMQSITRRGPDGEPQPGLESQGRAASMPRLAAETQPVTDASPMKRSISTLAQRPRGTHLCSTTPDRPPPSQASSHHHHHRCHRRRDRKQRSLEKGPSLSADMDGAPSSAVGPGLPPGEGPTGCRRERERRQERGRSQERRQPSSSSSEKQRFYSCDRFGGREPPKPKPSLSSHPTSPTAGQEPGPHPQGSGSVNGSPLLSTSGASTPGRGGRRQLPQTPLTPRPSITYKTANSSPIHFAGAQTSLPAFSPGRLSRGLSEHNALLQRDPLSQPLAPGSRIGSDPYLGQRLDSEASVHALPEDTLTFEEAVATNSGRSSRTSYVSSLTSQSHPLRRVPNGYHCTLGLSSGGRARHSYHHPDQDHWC

Sequence of Cav2.2 in human SH-SY5Y cell membranes (Q00975 whole entry, looked up): as above

**Q.** How did the IC50 [1] turn out when C[C@@H](O)[C@@H]1NC(=O)[C@H](Cc2ccc(O)cc2)NC(=O)[C@@H]2C[C@@H](O)CN2C(=O)[C@H](CC(N)=O)NC(=O)[C@@H]2CSSC[C@@H]3NC(=O)[C@H](CO)NC(=O)[C@H](CO)NC(=O)CNC(=O)[C@@H]4C[C@@H](O)CN4C(=O)[C@H](CO)NC(=O)[C@H](CCCCN)NC(=O)[C@@H](N)CSSC[C@H](NC(=O)[C@H](CSSC[C@@H](C(=O)N[C@@H](Cc4ccc(O)cc4)C(N)=O)NC(=O)[C@H](CCCN=C(N)N)NC(=O)[C@H](CCCCN)NC1=O)NC(=O)[C@H](CC(N)=O)NC(=O)[C@H](Cc1ccc(O)cc1)NC(=O)[C@H](CO)NC(=O)[C@H]([C@@H](C)O)NC(=O)[C@@H]1C[C@@H](O)CN1C(=O)[C@H](CO)NC3=O)C(=O)N[C@@H](CCCN=C(N)N)C(=O)N[C@@H](CO)C(=O)N2 [GVIA, reference compound] was run?
**A.** 0.078 ± 0.012 nM

**Q.** And the IC50 (hCav2.2)?
**A.** 170 ± 25 nM

**Q.** What does the source list for CC[C@H](C)[C@@H]1NC(=O)[C@@H]2CSSC[C@@H]3NC(=O)[C@H](CCCCN)NC(=O)[C@H](CO)NC(=O)CNC(=O)[C@@H]4C[C@@H](O)CN4C(=O)[C@@H]4CCCN4C(=O)[C@H](CCCCN)NC(=O)[C@@H](N)CSSC[C@H](NC(=O)[C@H](CSSC[C@@H](C(=O)N[C@@H](CCCNC(=N)N)C(=O)N[C@@H](CCCCN)C(=O)N[C@@H](Cc4ccc(O)cc4)C(=O)N[C@@H](Cc4ccc(O)cc4)C(=O)N[C@@H](CC(N)=O)C(=O)O)NC(=O)[C@H](CCCNC(=N)N)NC(=O)[C@H](CCCCN)NC(=O)[C@H]([C@@H](C)O)NC(=O)[C@H](Cc4ccc(O)cc4)NC(=O)[C@H](CO)NC1=O)NC(=O)[C@H](CC(=O)O)NC(=O)[C@H](CCCNC(=N)N)NC(=O)[C@H](CCSC)NC(=O)[C@H](CO)NC(=O)[C@@H]1C[C@@H](O)CN1C(=O)[C@H](CO)NC3=O)C(=O)N[C@@H]([C@@H](C)O)C(=O)N[C@@H]([C@@H](C)O)C(=O)N2 [MoVIA] (H-CKP[Hyp]GSKCS[Hyp]SMRDCCTTCISYTKRCRKYYN-OH; disulfide 1-16, 8-19, 15-26)?
**A.** IC50 [1]: 0.035 ± 0.017 nM; IC50 (hCav2.2): 330 ± 18 nM

**Q.** CC[C@H](C)[C@@H]1NC(=O)[C@@H]2CSSC[C@@H]3NC(=O)[C@H](CCCCN)NC(=O)[C@H](CO)NC(=O)CNC(=O)[C@@H]4C[C@@H](O)CN4C(=O)[C@@H]4CCCN4C(=O)[C@H](CCCCN)NC(=O)[C@@H](N)CSSC[C@H](NC(=O)[C@H](CSSC[C@@H](C(=O)N[C@@H](CCCNC(=N)N)C(=O)N[C@@H](CCCCN)C(=O)N[C@@H](Cc4ccc(O)cc4)C(=O)N[C@@H](Cc4ccc(O)cc4)C(=O)O)NC(=O)[C@H](CCCNC(=N)N)NC(=O)[C@H](CCCCN)NC(=O)[C@H]([C@@H](C)O)NC(=O)[C@H](Cc4ccc(O)cc4)NC(=O)[C@H](CO)NC1=O)NC(=O)[C@H](CC(=O)O)NC(=O)[C@H](CCCNC(=N)N)NC(=O)[C@H](CCSC)NC(=O)[C@H](CO)NC(=O)[C@@H]1C[C@@H](O)CN1C(=O)[C@H](CO)NC3=O)C(=O)N[C@@H]([C@@H](C)O)C(=O)N[C@@H]([C@@H](C)O)C(=O)N2 [MoVIB] (H-CKP[Hyp]GSKCS[Hyp]SMRDCCTTCISYTKRCRKYY-OH; disulfide 1-16, 8-19, 15-26) was tested. Which IC50 [1] did it give?
**A.** 0.365 ± 0.204 nM

**Q.** And the IC50 (hCav2.2)?
**A.** 600 ± 120 nM
